From US20080312206A1, “Chemical Compounds-149” (AstraZeneca AB, priority 2005, published 2008)

Biological target: T1, CSF-1R (Homo sapiens, UniProt P07333)
T1 construct: amino acids 568-912, GeneBank ID NM_005211; His; made in house; host or cells: baculovirus infected SF+Express insect cells
T1 sequence (P07333 568-912): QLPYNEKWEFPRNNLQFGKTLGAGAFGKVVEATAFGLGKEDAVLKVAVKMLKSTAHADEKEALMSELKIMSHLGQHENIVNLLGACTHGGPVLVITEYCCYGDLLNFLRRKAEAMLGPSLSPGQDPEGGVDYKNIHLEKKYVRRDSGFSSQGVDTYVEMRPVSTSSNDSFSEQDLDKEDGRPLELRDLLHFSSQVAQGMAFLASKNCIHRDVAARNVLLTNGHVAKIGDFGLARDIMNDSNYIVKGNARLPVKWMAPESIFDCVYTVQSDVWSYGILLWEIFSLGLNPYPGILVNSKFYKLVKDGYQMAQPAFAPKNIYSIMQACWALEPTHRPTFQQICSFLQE
Experiment: CSF-1R In Vitro AlphaScreen Assay
Assay type: biochemical
Conditions: purified His-tagged kinase domain of CSF-1R, pEY substrate, 90 μM ATP
Protocol: CSF-1R In Vitro AlphaScreen Assay
Activity of purified CSF-1R was determined in vitro using an Amplified Luminescent Proximity Homogeneous Assay (ALPHA)(Perkin Elmer), which measures phosphorylation of the CSF-1R substrate, biotinylated poly-glutamine-tyrosine peptide (pEY-HTRF CisBio 61GT0BLD), as described below. The His-tagged kinase domain of CSF-1R (i.e., amino acids 568-912, GeneBank ID NM_005211; (see page 25 lines 13-19 of WO 2006/067445 for the sequence listing)) was purified from baculovirus infected SF+Express insect cells (1.4×10^6 cells/ml), French pressed and chromatographed through subsequent Qiagen Ni-NTA, Superflow Mono Q HR 10/10, and Superdex 200 SEC columns. Typical yield was 322 ug/l of cell pellet at >95% purity.
The phosphorylation of the CSF-1R substrate in the presence and absence of the compound of interest was determined. Briefly, 0.2 pM of purified CSF-1R, 5 nM pEY substrate, and compound were preincubated in 1× buffer for 30 minutes at 25° C. Reactions were initiated with addition of 90 μM adenosine triphosphate (ATP) in 1× buffer and incubated at 25° C. for 40 minutes and reactions stopped by addition of 5 μl of detection mix consisting of 136 mM NaCl, 102 mM ethylenediamine tetraacetic acid, 1.65 mg/ml BSA, 40 ug/ml Streptavidin donor beads (Perkin Elmer 6760620M), 40 ug/ml pEY100 acceptor beads (Perkin Elmer 6760620M). Plates were incubated at 25° C. for 18 hours in the dark. Phosphorylated substrate was detected by an EnVision plate reader (Perkin Elmer) 680 nm excitation, 520-620 nm emission. Data was graphed and IC50s calculated using Excel Fit (Microsoft).

In order of falling IC50:
1. CC(C)c1ncc(NC(=O)c2cc(NC(=O)c3cc(F)cc(C(F)(F)F)c3)ccc2Cl)s1 [Example 21, 2-Chloro-5-{[3-fluoro-5-(trifluoromethyl)benzoyl]amino}-N-(2-isopropyl-1,3-thiazol-5-yl)benzamide]  0.013 µM
2. Cc1cc(C)cc(C(=O)Nc2ccc(Cl)c(C(=O)Nc3cnc(C(C)C)s3)c2)c1 [Example 20, 2-Chloro-5-[(3,5-dimethylbenzoyl)amino]-N-(2-isopropyl-1,3-thiazol-5-yl)benzamide]  0.01 µM
3. CON(C)C(=O)c1ncc(NC(=O)c2cc(NC(=O)c3cccc(C(C)(C)C#N)c3)ccc2C)s1 [Example 15, 5-[(5-{[3-(1-Cyano-1-methylethyl)benzoyl]amino}-2-methylbenzoyl)amino]-N-methoxy-N-methyl-1,3-thiazole-2-carboxamide]  0.007 µM
